The text below walks through data of patent publication US20220193120A1, “MOLECULAR HYDROGEN-CONTAINING COMPOSITION FOR MAINTAINING LUNG FUNCTION IN HUMAN LUNG CANCER AND/OR IMPROVING REDUCTION IN LUNG FUNCTION ATTRIBUTED TO HUMAN LUNG CANCER” (MiZ Company Limited, priority 2020, published 2022).

Where two headings read alike, the source gives them in different places.

For one data set, the system named is Lewis Lung Carcinoma. The following applies: inhalation of low concentration (3.5%) hydrogen; Japanese Patent No. 6781485, Example 1; cited from earlier work.
For data set [1], the system named is lung function of subject having lung cancer. The method, then: On Oct. 21, 2020, inhalation of the hydrogen gas was started using a hydrogen gas generator (Jobs-α, hydrogen concentration: about 4% to 5%, the amount of 100% hydrogen to be generated: 200 ml/min) manufactured by MiZ Company Limited (Ofuna, Kamakura). […]
For data set [2] the following is noted: room temperature, normal pressure; also printed as 1.6 mg/L; cited from earlier work.
For data set [3], the system named is lung function of subject having lung cancer. The settings on record: one month from start of inhalation, hydrogen about 1% to 2%, 3 to 6 hours per day. The method, then: A person had surgery of colorectal cancer in 2018. Thereafter, the person was periodically examined for follow-up. […] From the day of examination, the person was treated with hydrogen gas inhalation for 3 to 6 hours per day using a hydrogen gas generator (Jobs-mini, hydrogen concentration: about 1% to 2%, the amount of 100% hydrogen to be generated: 30 ml/min).

Where [4] appears, read: Week 2, hydrogen about 4% to 5%, at least 3 hours per day.
The mark [5] stands for this setting: Week 3, hydrogen about 4% to 5%, at least 3 hours per day.

Consider `[HH]` [hydrogen gas, molecular hydrogen], for which the metastasis entry in the data set with Lewis Lung Carcinoma is “suppressed”. In addition, the “tolerability of hydrogen gas inhalation” value in data set [1] (Week 1, inhalation 5 hours per day, hydrogen concentration about 4% to 5%, person stage IV lung cancer) was “inhaled comfortably with no discomfort”. Moreover, in data set [1] (setting [4]), the “amount of oxygen needed for oxygen inhalation” value is listed as “reduced”, the breathing result is listed as “became easier”, the “lung X-ray image change” value was “any significant change was not observed” and the state of breathing entry is on record as “became better”. Further, in data set [1] (setting [5]), the “amount of oxygen needed for oxygen inhalation” value is “reduced compared to that in the previous week”; the “complicating inflammation reaction such as colitis” value is “improved”; the “lung ventilatory function (doctors' determination from CT image and oxygen needed)” value was “improved compared to that one month ago”; the “shadows derived from pneumonia in chest CT image” value was “completely disappeared”. Moreover, the “concentration of hydrogen dissolved in water” value in data set [2] is reported as “approximately 1.6 ppm”. Further, in data set [3], the breathing function entry was “normal values again”, the lung capacity result was “normal values again” and the tumor markers entry is given as “normal numeric values again”. Besides, in data set [3] (person), the “lung cancer at pre-surgery examination” value is “disappeared”.
